According to patent US20250011332A1, “PYRAZOLO FUSED RING COMPOUND AND USE THEREOF” (SOTER BIOPHARMA PTE. LTD., priority 2021, published 2025):
pIC50: −log10 of the molar value.

Tests used:
[1] = Pharmacokinetic (PK) test in mice; assay type: in vivo; conditions: mouse, plasma, male balb/c mice, intravenous 1 mg/kg, gavage 3 mg/kg
Procedure: The clear solution obtained after dissolving the test compound was administered to male mice (balb/c) via tail vein injection and gavage respectively. After administration of the test compound, blood samples were collected from mandibular veins for the intravenous injection group (1 mg/kg) at 0.083, 0.25, 0.5, 1, 2, 4, 8 and 24 h and for the gavage group (3 mg/kg) was at 0.25, 0.5, 1, 2, 4, 6, 8 and 24 h, respectively, and centrifuged to obtain plasma. The LC-MS/MS method was used to determine the blood drug concentration, and the WinNonlin™ Version 6.3 pharmacokinetic software was used to calculate the relevant pharmacokinetic parameters by the non-compartmental model linear logarithmic trapezoidal method.

[2] = system: IL-23 induced psoriasis-like skin lesions in mice; experiment: In vivo drug efficacy test in mouse psoriasis model (IL-23 induced auricular epidermal dysplasia); set-up: species or system C57BL/6 mice; Ear comprehensive score: scale not given here; conditions: for Ear weight: end of experiment (Day 10), 8 mm punch
Description: Purpose: The purpose of this experiment is to evaluate the preventive and therapeutic effect of the test substance on IL-23 induced psoriasis-like skin lesions in mice through the psoriasis-like skin lesions model induced by intradermal injection of IL-23 into the mouse auricle.
Method: After the adaptation period of experimental animals, 50 mice were divided into 5 groups according to the Excel completely random grouping method, with 10 mice in each group, as follows: vehicle (0.5% MC & 0.5% Tween 80) control group, modeling group, compound 1 (10, 20, 50 mg/kg) group. Except for the vehicle control group, the animals in the other groups were intradermally injected with IL-23 (3 μg/10 μL/mouse/day, QD) in their right ears for 8 consecutive days (D1-D8). The animals in the control group were intradermally injected with an equal volume of physiological saline solution (10 μL/mouse/day, QD) in the right ear for 8 consecutive days (D1-D8). For the modeling group, the vehicle and test drug were administered orally at the same time, twice a day (Bid), with an interval of 6 h, for 8 consecutive days (D1-D8). During the dosing period, the animal body weight was monitored every two days. On D1, D3, D5, D7 (all before IL-23 injection), and D9, the thickness of the mouse right ear was measured and the auricle appearance was observed and scored. At the end of the experiment (Day 10), the ear on the side where the model was created was taken, and the ear was punched along the edge of the auricle with an 8 mm punch to obtain a piece of ear which was weighed. The piece of ear from the right ear was fixed with formalin and then subjected to histopathological examination (H&E) staining.

JAK1(h) = JAK1(h) (Homo sapiens (Human), UniProt P23458); experiment: JAK1 kinase activity test in vitro ([γ-33P]-ATP, Eurofins); assay type: biochemical
Sequence of JAK1(h) (P23458 whole entry): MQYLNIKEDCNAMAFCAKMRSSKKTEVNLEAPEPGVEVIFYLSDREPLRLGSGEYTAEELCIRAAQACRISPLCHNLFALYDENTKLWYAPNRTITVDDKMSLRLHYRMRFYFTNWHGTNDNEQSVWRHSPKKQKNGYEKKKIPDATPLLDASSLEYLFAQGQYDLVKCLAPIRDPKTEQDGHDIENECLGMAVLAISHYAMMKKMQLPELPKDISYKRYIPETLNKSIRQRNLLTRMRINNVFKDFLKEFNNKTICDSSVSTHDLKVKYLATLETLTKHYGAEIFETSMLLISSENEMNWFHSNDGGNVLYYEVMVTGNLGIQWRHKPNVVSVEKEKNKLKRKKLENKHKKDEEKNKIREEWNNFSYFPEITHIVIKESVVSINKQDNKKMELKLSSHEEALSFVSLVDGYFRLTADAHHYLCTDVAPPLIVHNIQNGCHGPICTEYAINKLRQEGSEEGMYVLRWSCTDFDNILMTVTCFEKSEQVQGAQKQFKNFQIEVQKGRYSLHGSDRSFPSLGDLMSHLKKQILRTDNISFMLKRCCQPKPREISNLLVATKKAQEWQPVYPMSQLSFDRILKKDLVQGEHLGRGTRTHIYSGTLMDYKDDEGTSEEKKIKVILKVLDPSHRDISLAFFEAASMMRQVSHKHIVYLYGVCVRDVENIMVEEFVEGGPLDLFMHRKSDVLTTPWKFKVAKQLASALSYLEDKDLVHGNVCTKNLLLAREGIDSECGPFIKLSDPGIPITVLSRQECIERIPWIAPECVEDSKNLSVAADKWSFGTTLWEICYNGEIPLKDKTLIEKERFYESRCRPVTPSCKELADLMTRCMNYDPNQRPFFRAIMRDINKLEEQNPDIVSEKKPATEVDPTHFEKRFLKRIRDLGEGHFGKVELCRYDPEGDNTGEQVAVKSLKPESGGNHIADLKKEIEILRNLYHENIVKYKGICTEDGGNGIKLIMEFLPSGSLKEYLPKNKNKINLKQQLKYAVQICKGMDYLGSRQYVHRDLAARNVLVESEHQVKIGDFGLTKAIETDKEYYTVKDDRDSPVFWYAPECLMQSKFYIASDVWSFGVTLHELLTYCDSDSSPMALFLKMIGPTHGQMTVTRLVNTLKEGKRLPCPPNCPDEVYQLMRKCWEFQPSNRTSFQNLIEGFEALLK
Procedure: (§1) Recombinant human JAK1, JAK2, JAK3 and Tyk2 […], main instruments and reagents are all provided by the British company Eurofins
(§2) JAK2, JAK3 and TYK2 dilution: 20 mM 3-(N-morpholine)propanesulfonic acid (MOPS), 1 mM EDTA, 0.01% Brij-35.5% glycerol, 0.1% β-mercaptoethanol, 1 mg/mL BSA; JAK1 dilution: 20 mM TRIS, 0.2 mM EDTA, 0.1% β-mercaptoethanol, 0.01% Brij-35.5% glycerol. All compounds were prepared as 100% DMSO solutions and brought to 50 times the final assay concentration. The test compound was subjected to 3-fold serial concentration dilution with a final concentration from 10 μM to 0.001 μM of a total of 9 concentrations. The content of DMSO in the detection reaction was 2%. A working stock solution of this compound was added to the assay well as the first component of the reaction, and then the remaining components were added according to the protocol detailed in the following determination.
JAK1(h) was incubated with 20 mM Tris/HCl pH 7.5, 0.2 mM EDTA, 500 μM MGEEPLYWSFPAKKK (SEQ ID NO: 1), 10 mM magnesium acetate and [γ-^33P]-ATP (activity and concentration were determined as required). The reaction was started by adding the Mg/ATP mixture, and after incubation at room temperature for 40 min, the reaction was terminated by adding 0.5% phosphoric acid. Then 10 μL of the reaction product was spotted on a P30 filter pad which was washed three times with 0.425% phosphoric acid and once with methanol within 4 min, dried, and subjected to scintillation counting.
(§3) IC50 results were analyzed by XLFIT5 (205 formula) of IDBS Company.

JAK3(h) = JAK3(h) (Homo sapiens (Human), UniProt P52333); experiment: JAK3 kinase activity test in vitro ([γ-33P]-ATP, Eurofins); assay type: biochemical
Sequence of JAK3(h) (P52333 whole entry): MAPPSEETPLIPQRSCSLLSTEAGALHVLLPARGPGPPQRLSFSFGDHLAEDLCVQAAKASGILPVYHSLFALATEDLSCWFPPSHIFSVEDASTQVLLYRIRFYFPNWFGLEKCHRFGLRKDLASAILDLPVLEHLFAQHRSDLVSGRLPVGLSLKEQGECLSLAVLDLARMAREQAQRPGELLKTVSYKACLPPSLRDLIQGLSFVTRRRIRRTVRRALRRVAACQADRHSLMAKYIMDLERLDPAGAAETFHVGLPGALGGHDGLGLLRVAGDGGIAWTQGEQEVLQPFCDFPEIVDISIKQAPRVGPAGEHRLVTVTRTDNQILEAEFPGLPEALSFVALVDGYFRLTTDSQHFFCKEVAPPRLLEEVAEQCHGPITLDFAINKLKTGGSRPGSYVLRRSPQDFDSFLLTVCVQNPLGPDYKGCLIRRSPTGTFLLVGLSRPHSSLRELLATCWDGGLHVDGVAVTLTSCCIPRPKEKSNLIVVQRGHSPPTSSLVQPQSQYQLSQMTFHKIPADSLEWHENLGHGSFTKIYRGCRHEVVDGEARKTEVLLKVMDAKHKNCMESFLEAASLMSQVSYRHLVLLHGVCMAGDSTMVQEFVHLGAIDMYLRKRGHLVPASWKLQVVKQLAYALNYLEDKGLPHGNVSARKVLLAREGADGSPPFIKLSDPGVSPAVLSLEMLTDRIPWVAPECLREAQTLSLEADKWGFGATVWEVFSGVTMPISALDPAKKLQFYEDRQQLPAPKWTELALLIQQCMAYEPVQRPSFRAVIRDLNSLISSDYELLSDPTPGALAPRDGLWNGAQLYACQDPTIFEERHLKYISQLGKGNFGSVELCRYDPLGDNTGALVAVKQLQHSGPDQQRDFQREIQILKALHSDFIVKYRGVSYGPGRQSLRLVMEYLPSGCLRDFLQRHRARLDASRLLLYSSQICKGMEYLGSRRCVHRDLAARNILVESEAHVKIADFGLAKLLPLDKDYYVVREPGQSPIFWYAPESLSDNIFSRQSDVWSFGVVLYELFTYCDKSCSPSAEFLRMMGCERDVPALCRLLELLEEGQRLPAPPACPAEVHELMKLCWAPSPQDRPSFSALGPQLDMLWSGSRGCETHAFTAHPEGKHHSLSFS
Procedure: as §1, §2
(§4) JAK3(h) was incubated with 8 mM MOPS pH 7.0, 0.2 mM EDTA, 500 μM GGEEEEYFELVKKKK (SEQ ID NO: 3), 10 mM magnesium acetate, and [γ-^33P]-ATP (activity and concentration were determined as required). The reaction was started by adding the Mg/ATP mixture, and after incubation at room temperature for 40 min, the reaction was terminated by adding 0.5% phosphoric acid. Then 10 μL of the reaction product was spotted on a P30 filter pad which was washed three times with 0.425% phosphoric acid and once with methanol within 4 min, dried, and subjected to scintillation counting.
as §3

JAK2(h) = JAK2(h) (Homo sapiens (Human), UniProt O60674); experiment: JAK2 kinase activity test in vitro ([γ-33P]-ATP, Eurofins); assay type: biochemical
Sequence of JAK2(h) (O60674 whole entry): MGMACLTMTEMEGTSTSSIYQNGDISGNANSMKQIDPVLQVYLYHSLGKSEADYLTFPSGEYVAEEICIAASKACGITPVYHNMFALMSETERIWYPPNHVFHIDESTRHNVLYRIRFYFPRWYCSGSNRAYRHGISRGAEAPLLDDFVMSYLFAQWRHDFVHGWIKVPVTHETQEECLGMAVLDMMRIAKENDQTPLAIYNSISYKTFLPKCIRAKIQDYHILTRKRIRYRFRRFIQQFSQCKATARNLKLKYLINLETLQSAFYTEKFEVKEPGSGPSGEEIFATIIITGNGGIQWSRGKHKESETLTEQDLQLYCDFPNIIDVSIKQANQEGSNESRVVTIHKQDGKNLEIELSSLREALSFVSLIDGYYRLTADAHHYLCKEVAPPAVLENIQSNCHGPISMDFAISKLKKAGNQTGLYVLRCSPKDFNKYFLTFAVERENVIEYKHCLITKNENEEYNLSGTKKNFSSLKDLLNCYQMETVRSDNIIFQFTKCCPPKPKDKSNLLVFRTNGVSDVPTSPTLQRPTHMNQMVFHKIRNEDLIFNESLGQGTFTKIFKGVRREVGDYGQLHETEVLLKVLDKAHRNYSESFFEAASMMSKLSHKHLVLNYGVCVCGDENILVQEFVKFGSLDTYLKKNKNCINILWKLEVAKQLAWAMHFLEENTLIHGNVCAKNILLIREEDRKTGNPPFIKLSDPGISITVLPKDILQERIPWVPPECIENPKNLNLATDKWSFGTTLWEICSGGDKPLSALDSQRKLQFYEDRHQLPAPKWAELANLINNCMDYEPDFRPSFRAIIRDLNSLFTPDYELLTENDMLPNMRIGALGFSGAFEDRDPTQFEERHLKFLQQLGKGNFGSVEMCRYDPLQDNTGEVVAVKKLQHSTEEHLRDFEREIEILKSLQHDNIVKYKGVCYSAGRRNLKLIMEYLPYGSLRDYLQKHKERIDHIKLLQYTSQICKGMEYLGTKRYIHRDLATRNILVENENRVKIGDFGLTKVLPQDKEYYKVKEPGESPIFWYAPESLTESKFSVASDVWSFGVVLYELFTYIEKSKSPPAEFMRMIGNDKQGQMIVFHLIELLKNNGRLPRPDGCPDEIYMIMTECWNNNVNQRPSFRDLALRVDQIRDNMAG
Procedure: as §1, §2
as §4, with “JAK2(h)” for “JAK3(h)”, “100” for “500”, “GGEEEEYFELVKKKK” left out, “2),” for “3),”
as §3

TYK2(h) = TYK2(h) (Homo sapiens (Human), UniProt P29597); experiment: TYK2 kinase activity test in vitro ([γ-33P]-ATP, Eurofins); assay type: biochemical
Sequence of TYK2(h) (P29597 whole entry): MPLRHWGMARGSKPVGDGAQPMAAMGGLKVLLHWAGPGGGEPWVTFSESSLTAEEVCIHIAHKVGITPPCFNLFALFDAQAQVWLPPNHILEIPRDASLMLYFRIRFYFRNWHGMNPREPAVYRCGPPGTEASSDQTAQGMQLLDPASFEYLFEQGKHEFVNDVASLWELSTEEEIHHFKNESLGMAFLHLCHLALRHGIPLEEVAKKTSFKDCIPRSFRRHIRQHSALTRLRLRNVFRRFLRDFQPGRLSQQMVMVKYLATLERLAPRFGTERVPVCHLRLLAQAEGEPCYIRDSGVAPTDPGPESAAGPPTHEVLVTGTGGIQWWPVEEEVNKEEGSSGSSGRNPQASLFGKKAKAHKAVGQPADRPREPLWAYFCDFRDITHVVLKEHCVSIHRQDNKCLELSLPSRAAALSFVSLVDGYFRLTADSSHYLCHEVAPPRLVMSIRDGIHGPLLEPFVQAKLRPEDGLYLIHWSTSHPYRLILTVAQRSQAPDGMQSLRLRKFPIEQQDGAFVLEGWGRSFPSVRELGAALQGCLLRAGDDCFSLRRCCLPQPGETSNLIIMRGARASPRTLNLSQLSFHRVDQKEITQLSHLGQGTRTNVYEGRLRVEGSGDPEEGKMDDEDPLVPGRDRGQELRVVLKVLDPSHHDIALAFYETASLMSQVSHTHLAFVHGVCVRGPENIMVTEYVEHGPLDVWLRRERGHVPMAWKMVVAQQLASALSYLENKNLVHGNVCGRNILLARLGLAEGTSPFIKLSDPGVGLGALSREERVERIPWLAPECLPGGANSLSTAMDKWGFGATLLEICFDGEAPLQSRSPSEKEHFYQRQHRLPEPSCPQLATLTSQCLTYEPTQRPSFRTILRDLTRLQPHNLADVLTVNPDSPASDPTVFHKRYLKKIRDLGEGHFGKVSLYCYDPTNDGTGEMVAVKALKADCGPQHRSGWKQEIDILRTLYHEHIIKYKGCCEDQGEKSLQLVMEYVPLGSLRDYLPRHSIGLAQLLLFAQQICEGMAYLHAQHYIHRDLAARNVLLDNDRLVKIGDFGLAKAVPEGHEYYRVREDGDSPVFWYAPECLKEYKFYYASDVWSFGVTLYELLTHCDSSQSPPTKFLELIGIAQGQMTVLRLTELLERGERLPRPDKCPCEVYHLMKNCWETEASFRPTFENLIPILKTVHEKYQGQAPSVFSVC
Procedure: as §1, §2
as §4, with “TYK2(h)” for “JAK3(h)”, “250” for “500”, “GGMEDIYFEFMGGKKK” for “GGEEEEYFELVKKKK”, “4),” for “3),”
as §3

[3] = 10 mg/kg oral gavage Bid, day 1
[4] = 10 mg/kg oral gavage Bid, day 3
[5] = 10 mg/kg oral gavage Bid, day 5
[6] = 10 mg/kg oral gavage Bid, day 7
[7] = 10 mg/kg oral gavage Bid, day 9
[8] = 20 mg/kg oral gavage Bid, day 1
[9] = 20 mg/kg oral gavage Bid, day 3
[10] = 20 mg/kg oral gavage Bid, day 5
[11] = 20 mg/kg oral gavage Bid, day 7
[12] = 20 mg/kg oral gavage Bid, day 9
[13] = 50 mg/kg oral gavage Bid, day 1
[14] = 50 mg/kg oral gavage Bid, day 3
[15] = 50 mg/kg oral gavage Bid, day 5
[16] = 50 mg/kg oral gavage Bid, day 7
[17] = 50 mg/kg oral gavage Bid, day 9

For Cn1cc(-c2cn3nccc3c(-c3cnn([C@]4(CC#N)CC5(C[C@H](C#N)C5)C4)c3)n2)cn1 (stereo partly drawn) [Compound 1], the bioavailability ([1]; oral) was 88.7%, the AUC(0-inf) [1] was 7.67 µM·h and the clearance ([1]; read-out: Cl (clearance rate)) was 15.6 mL/min/kg. The Cmax ([1]; read-out: Cmax (peak concentration)) was 3.04 µM, the half-life ([1]; read-out: T1/2 (half-life) (converted)) was 2.39 h and the Vd ([1]; read-out: Vd (distribution volume)) was 1.59 L/kg. The Ear comprehensive score [2, 3] was 0.00 ± 0.00, the “Ear thickness (mm)” value [2, 3] was 0.189 ± 0.006 mm and the “Weight” value [2, 3] was 19.77 ± 0.59 g. The Ear comprehensive score [2, 4] was 0.00 ± 0.00, the “Ear thickness (mm)” value [2, 4] was 0.287 ± 0.018 mm and the “Weight” value [2, 4] was 19.69 ± 0.57 g. For the same compound, the Ear comprehensive score [2, 5] was 0.60 ± 0.52, the “Ear thickness (mm)” value [2, 5] was 0.311 ± 0.013 mm and the “Weight” value [2, 5] was 20.02 ± 0.77 g. The Ear comprehensive score [2, 6] was 1.70 ± 1.06, the “Ear thickness (mm)” value [2, 6] was 0.373 ± 0.030 mm and the “Weight” value [2, 6] was 19.69 ± 0.63 g. The Ear comprehensive score [2, 7] was 2.60 ± 1.43, the “Ear thickness (mm)” value [2, 7] was 0.430 ± 0.048 mm and the “Weight” value [2, 7] was 20.04 ± 0.72 g. For the same compound, the “Ear weight” value ([2]; 10 mg/kg oral gavage Bid) was 19.16 ± 1.56 mg, the Ear comprehensive score [2, 8] was 0.00 ± 0.00 and the “Ear thickness (mm)” value [2, 8] was 0.190 ± 0.009 mm. The “Weight” value [2, 8] was 19.77 ± 0.54 g, the Ear comprehensive score [2, 9] was 0.00 ± 0.00 and the “Ear thickness (mm)” value [2, 9] was 0.289 ± 0.028 mm. The “Weight” value [2, 9] was 19.85 ± 0.78 g, the Ear comprehensive score [2, 10] was 0.60 ± 0.70 and the “Ear thickness (mm)” value [2, 10] was 0.306 ± 0.018 mm. For the same compound, the “Weight” value [2, 10] was 20.13 ± 0.78 g, the Ear comprehensive score [2, 11] was 1.40 ± 0.52 and the “Ear thickness (mm)” value [2, 11] was 0.350 ± 0.025 mm. The “Weight” value [2, 11] was 19.80 ± 0.92 g, the Ear comprehensive score [2, 12] was 1.50 ± 0.71 and the “Ear thickness (mm)” value [2, 12] was 0.381 ± 0.032 mm. The “Weight” value [2, 12] was 20.27 ± 0.90 g, the “Ear weight” value ([2]; 20 mg/kg oral gavage Bid) was 18.76 ± 1.62 mg and the Ear comprehensive score [2, 13] was 0.00 ± 0.00. The “Ear thickness (mm)” value [2, 13] was 0.193 ± 0.006 mm, the “Weight” value [2, 13] was 19.78 ± 0.53 g and the Ear comprehensive score [2, 14] was 0.00 ± 0.00. For the same compound, the “Ear thickness (mm)” value [2, 14] was 0.279 ± 0.024 mm, the “Weight” value [2, 14] was 19.85 ± 0.68 g and the Ear comprehensive score [2, 15] was 0.10 ± 0.32. The “Ear thickness (mm)” value [2, 15] was 0.289 ± 0.025 mm, the “Weight” value [2, 15] was 20.41 ± 0.70 g and the Ear comprehensive score [2, 16] was 1.40 ± 0.70. The “Ear thickness (mm)” value [2, 16] was 0.338 ± 0.023 mm, the “Weight” value [2, 16] was 20.15 ± 0.56 g and the Ear comprehensive score [2, 17] was 1.00 ± 0.47. The “Ear thickness (mm)” value [2, 17] was 0.352 ± 0.032 mm, the “Weight” value [2, 17] was 20.28 ± 0.76 g and the “Ear weight” value ([2]; 50 mg/kg oral gavage Bid) was 17.63 ± 1.47 mg.
Compound Cn1ccc(-c2cn3nccc3c(-c3cnn(C(CC#N)C45CC(C#N)(C4)C5)c3)n2)n1 (stereo not drawn) [Compound 3] has a pIC50 (JAK1(h)) of 5.93, a pIC50 (JAK3(h)) of 5.00 and a pIC50 (JAK2(h)) of 6.41. It also gave a pIC50 (TYK2(h)) of 6.75.
Work on Cn1ccc(-c2cn3nccc3c(-c3cnn([C@]4(CC#N)CC5(C[C@H](C#N)C5)C4)c3)n2)n1 (stereo partly drawn) [Compound 4] yielded a pIC50 (JAK1(h)) of 6.22, a pIC50 (JAK3(h)) of at most 5.00 and a pIC50 (JAK2(h)) of 7.09. The pIC50 (TYK2(h)) was 7.70.
Cn1ccc(-c2cn3nccc3c(-c3cnn([C@]4(CC#N)CC5(C[C@@H](C#N)C5)C4)c3)n2)n1 (stereo partly drawn) [Compound 5] showed a pIC50 (JAK1(h)) of 7.11, a pIC50 (JAK3(h)) of 5.65 and a pIC50 (JAK2(h)) of 7.40. For the same compound, the pIC50 (TYK2(h)) was 8.05.
Work on Cn1ccc(-c2cn3nccc3c(-c3cnn(C4(CC#N)CC5(CN(CC#N)C5)C4)c3)n2)n1 [Compound 6] yielded a pIC50 (JAK1(h)) of 5.50 and a pIC50 (TYK2(h)) of 6.75.
Cn1ccc(-c2cn3nccc3c(-c3cnn(C4(CC#N)CC5(CN(C#N)C5)C4)c3)n2)n1 [Compound 7] showed a pIC50 (JAK1(h)) of 5.54 and a pIC50 (TYK2(h)) of 6.64.
Work on Cn1ccc(-c2cn3nccc3c(-c3cnn(C4(CC#N)CC5C(C#N)C5C4)c3)n2)n1 (stereo not drawn) [Compound 8] yielded a pIC50 (JAK1(h)) of 7.86, a pIC50 (JAK3(h)) of 7.64 and a pIC50 (JAK2(h)) of 8.95. It also gave a pIC50 (TYK2(h)) of 8.19.
With Cn1ccc(-c2cn3nccc3c(-c3cnn(C4(CC#N)CC5(CCN(C#N)CC5)C4)c3)n2)n1 [Compound 9] the pIC50 (JAK1(h)) was 6.89, the pIC50 (JAK3(h)) was 6.68 and the pIC50 (JAK2(h)) was 8.29. For the same compound, the pIC50 (TYK2(h)) was 8.55.
Compound Cn1nc(-c2cn3nccc3c(-c3cnn([C@]4(CC#N)CC5(C[C@H](C#N)C5)C4)c3)n2)cc1N (stereo partly drawn) [Compound 14] has a pIC50 (JAK1(h)) of 7.29, a pIC50 (JAK3(h)) of 6.53 and a pIC50 (JAK2(h)) of 8.22. The pIC50 (TYK2(h)) was 9.10.
Cn1cc(-c2cc(-c3cnn([C@]4(CC#N)CC5(C[C@H](C#N)C5)C4)c3)c3ccnn3c2)cn1 (stereo partly drawn) [Compound 16] showed a pIC50 (JAK1(h)) of 7.38, a pIC50 (JAK3(h)) of 7.17 and a pIC50 (JAK2(h)) of 8.22. For the same compound, the pIC50 (TYK2(h)) was 8.70.
N#CC[C@]1(n2cc(-c3nc(-c4cc(N)[nH]n4)cn4nccc34)cn2)CC2(C[C@@H](C#N)C2)C1 (stereo partly drawn) [Compound 21] gave a pIC50 (JAK1(h)) of 8.30, a pIC50 (JAK3(h)) of 7.00 and a pIC50 (JAK2(h)) of 8.52. The pIC50 (TYK2(h)) was 9.15.
